Paper PMC8404199, “Structure–Activity Relationships of Triple-Action Platinum(IV) Prodrugs with Albumin-Binding Properties and Immunomodulating Ligands” (Journal of Medicinal Chemistry, 2021)
Like-named read-outs stand apart in the source and are kept apart here.

Key:
IDO = experiment: LC-HRMS of 1-MDT and Trp metabolites in tumor tissue; format: in vivo, mice; conditions: 24 h after treatment
Method: To 50 mg of tumor tissue, 50 μL of fully ^13C internal standard (labeled yeast extract prepared in 2 mL of H2O; ISOtopic solutions e.U., Vienna, Austria) and 950 μL of 80% MeOH (LC–MS grade, Sigma-Aldrich, Vienna, Austria) were added and homogenized in a Dounce-type glass tissue grinder. The homogenate was collected, the tissue homogenizer was washed twice with 400 μL 80% MeOH (LC–MS grade, Sigma-Aldrich, Vienna, Austria), and the washing solution was added to the homogenate. The samples were vortexed, centrifuged (14,000g, 4 °C, 20 min), and kept on dry ice until further processing. 500 μL of tumor sample aliquots was dried for direct LC–HRMS analysis.
All samples were resuspended in 100 μL of water (supernatant sample: same volume; tumor samples 5-fold concentration) and measured using a 12 min method based on reversed-phase chromatography (column: HSS T3, 1.8 μm, 2.1 × 150 mm, Waters) and high-resolution mass spectrometry (Orbitrap HF, Thermo). For quantification, multi-point calibration with external standard mixes (Kyn, Trp, and kynurenic acid) using co-eluting ^13C internal standards was performed and analyzed by Skyline 20.2.0.286. For 1-MDT, relative quantification based on ^13C Trp normalization was performed.

[1] = tested on: CT26 colon cancer allografts; experiment: Anticancer activity against CT26 allografts in Balb/c mice; format: in vivo; conditions: iv, equimolar to 9 mg/kg oxaliplatin, twice a week for 2 weeks
Method: Every day, the animals were monitored for body weight and the enhanced stress level, and the tumor size was measured using a caliper according to the formula length × width^2/2.

[2] = Organ distribution of platinum in SKOV3-bearing SCID mice; conditions: 24 h after single iv dose equimolar to 9 mg/kg oxaliplatin; for Platinum ratio tumor:kidney / Platinum ratio tumor:liver: ratio of mean platinum levels
Method: For tissue digestion, approx. 25–50 mg of tissue was weighed into perfluoralkoxy tubes, and 2 mL of HNO3 and 100 μL H2O2 (30%, Suprapur, Merck, Darmstadt, Germany) were added. The solutions were placed on a hot plate and heated up for 7 h using a temperature program with a maximum of 200 °C. The liquids were transferred to 15 mL tubes with the remaining solution being removed by washing twice with 4 mL of ultrapure water.
Platinum concentrations were measured using an Agilent 7800 ICP-QMS instrument (Agilent Technologies, Tokyo, Japan) equipped with an Agilent SPS 4 autosampler (Agilent Technologies, Tokyo, Japan) and a MicroMist nebulizer at a sample uptake rate of approx. 0.2 mL/min. […] All of the measured samples were blank corrected (for the cell culture data, wells containing no cells were used). Elemental standard solutions were purchased from Labkings (Hilversum, The Netherlands). The instrument was tuned on a daily basis.
SKOV3 cells (1.5 × 10^6 cells in 50 μL serum-free medium) were injected subcutaneously into the right flank of male SCID mice. […] Then, the animals were sacrificed by cervical dislocation, and tumors and organs were collected for the measurement with ICP–MS. For plasma isolation, blood was collected in ethylenediaminetetraacetic acid (EDTA)-coated tubes and centrifuged for 10 min at 900g at 4 °C. Plasma was transferred to a new tube and centrifuged once more to remove residual red blood cells.

[3] = tested on: tumor-infiltrating T-cell populations; experiment: Flow cytometry of T-cell populations in CT26 tumors and tumor-draining lymph nodes; format: in vivo, Balb/c mice; conditions: 24 h after single iv treatment equimolar to 9 mg/kg oxaliplatin
Method: CT26 cells (5 × 10^5 cells in 50 μL of serum-free RPMI medium) were injected into the right flank of female Balb/c mice (n = 4 per group). On day 7, when the tumors reached a mean tumor volume of ∼170 mm^3, mice were treated once iv with MalEs/IdoCa at a concentration equimolar to 9 mg/kg (dissolved in 20% PG in PBS) or solvent only. After 24 h, the animals were sacrificed, and tumor tissues and the tumor-draining lymph nodes were isolated. Tissues were collected in a tube with 750 μL of ice-cold PBS containing 5% FBS and cut into small pieces. Samples were digested using PBS containing 50 mg/mL collagenase (C2139, Merck, Darmstadt, Germany) and 50 mg/mL DNase I (DN25, Darmstadt, Germany) and filtered several times through a 70 μm cell strainer (734-2761, VWR, Pennsylvania, USA). The samples were centrifuged, and cell pellets were treated with ammonium–chloride–potassium (ACK)-buffer (150 mM NH4Cl, 10 mM KHCO3, 127 μM EDTA, pH 7.2–7.4) to lyse red blood cells and centrifuged in a Würzburg buffer (PBS containing 5% FBS, 5 mM EDTA, 20 μg/mL DNase I).
Cells were washed with PBS and stained using the Aqua Zombie Fixable Viability Kit (423101, BioLegend, California, USA), according to the manufacturer’s instructions. […] The cleaned up data were analyzed using the gating strategy, as shown in Figure S15 for murine tissue and Figure S16 for human co-culture experiment.

[4] = UHPLC reduction experiments with L-ascorbic acid; format: physicochemical; conditions: 1 mM complex, 10 mM AA, pH 7.4, 20 °C
Method: The platinum(IV)–succinimide complexes were dissolved in 2% DMF in phosphate buffer (500 mM, pH 7.4) to a final concentration of 2 mM. The solutions were then mixed 1:1 with a 20 mM stock of L-ascorbic acid in phosphate buffer (500 mM, pH 7.4) to obtain final concentrations of 1 mM complex, 10 mM L-ascorbic acid, and 1% DMF. The samples were incubated at 20 °C and measured on a Dionex UltiMate 3000 RS UPLC system with a Waters Acquity UPLC BEH C18 column (3 × 50 mm, pore size 1.7 μm) and absorption detection at 220 nm. Data points were taken at t = 0 and every 30 min for 6 h.

[5] = UHPLC reduction kinetics with dithiothreitol; format: physicochemical; conditions: 1 mM complex, 10 mM DTT, 1% DMF, 500 mM phosphate buffer pH 7.4, 20 °C
Method: Figure S 3: Reduction kinetics of reference compounds with AA at 20°C , measured by UHPLC and UV absorption at 220 nm. A: Comparison of OAc/IPAEs with amino -group containing SucCa/IdoEs; B:
Reductive stability of reference compounds with no 1MDT -like ligand. AUC-values were normalized to t = 0. Experimental conditions: 1 mM complex, 10 mM AA in 1% DMF and 500 mM phosphate buffer […]
conditions: 1 mM complex, 10 mM DTT in 1% DMF and 500 mM phosphate buffer (pH 7.4). […]

[6] = tested on: murine CT26 colon cancer cells; experiment: MTT cytotoxicity assay in CT26 cells; format: cell-based
Method: (§1) Cells were additionally incubated with 5-fold equimolar concentrations of ascorbic acid to increase the reduction rate of the compounds. Cell viability was measured by the MTT-based vitality assay (EZ4U; Biomedica, Vienna, Austria), following the manufacturer’s recommendations.

[7] = tested on: human HCT116 colon cancer cells; experiment: MTT cytotoxicity assay in HCT116 cells; format: cell-based
Method: as §1

[8] = tested on: human embryonic kidney cells (HEK293); experiment: MTT cytotoxicity assay in non-malignant HEK293 cells; format: cell-based; conditions: 72 h
Method: (§2) The cells were seeded at 3500–6000 cells/well in 96-well plates depending on the proliferation rate of the respective cell line and allowed to recover for 24 h. Subsequently, the cells were treated at indicated concentrations for 48 or 72 h. Cells were additionally incubated with 5-fold equimolar concentrations of ascorbic acid to increase the reduction rate of the compounds. Cell viability was measured by the MTT-based vitality assay (EZ4U; Biomedica, Vienna, Austria), following the manufacturer’s recommendations.

[9] = tested on: human hepatic cell line (WRL68); experiment: MTT cytotoxicity assay in non-malignant WRL68 cells; format: cell-based; conditions: 72 h
Method: as §2

human SKOV3 cancer cells = experiment: MTT cytotoxicity assay in SKOV3 cells; format: cell-based; conditions: 72 h incubation, with 5 eq. AA; read-out: SKOV3 IC50 values + 5 eq. AA, mean
Method: as §2

[10] = tested on: VM7 melanoma cancer cells; experiment: MTT cytotoxicity assay in VM7 cells; format: cell-based, human; conditions: 72 h
Method: as §2

SKOV3 cancer cells = experiment: Long-term cytotoxicity assay (crystal violet) in SKOV3 cells; format: cell-based, human; conditions: 168 h, crystal violet stain, mean ± SD
Method: SKOV3 cells were seeded in duplicates at 5000 cells/well in 24-well plates and allowed to recover for 24 h. Subsequently, the cells were treated at the indicated concentrations for 168 h. Cells were fixed with ice-cold methanol (20 min at 4 °C), washed with PBS, and stained with crystal violet. Subsequently, colony formation was inspected, and the fluorescence signal was detected using Typhoon Trio imager (GE Healthcare, Little Chalfont, UK) at 610/30 nm BP and analyzed by ImageJ software.

HCT116 cells = experiment: Cellular platinum levels in HCT116 cells by ICP-MS; format: cell-based, human; conditions: HCT116, 20 μM, 3 h incubation
Method: HCT116 cells were seeded at 6 × 10^5 cells/well in a six-well plate and allowed to settle for 24 h. Cells were exposed to drugs at 20 μM for 3 h under normal cell culture conditions. Cells were washed twice with PBS and lysed at RT in 500 μL HNO3 (≥69%, Rotipuran Supra, Carl Roth, Karlsruhe, Germany) for 1 h. 400 μL of the lysate was transferred to 7.6 mL of ultrapure water (18.2 MΩ cm, Milli-Q Advantage, Darmstadt, Germany).
The instrument was tuned on a daily basis.

Cn1cc(C[C@@H]([NH3+])C(=O)[O][Pt]2([O]C(=O)NCCCCCN3C(=O)C=CC3=O)[O]C(=O)C(=O)[O]2)c2ccccc21.N[C@@H]1CCCC[C@H]1N.O=C([O-])C(F)(F)F [MalCa/IdoEs, (OC-6-34)-[(R)-2-Ammonio-3-(1-methyl-1H-indol-3-yl)propanoato][(1R,2R)-1,2-cyclohexanediamino][5-(2,5-dioxo-2,5-dihydro-1H-pyrrol-1-yl)pentylcarbamato]oxalatoplatinum(IV) Trifluoroacetate]
kynurenic acid in tumors (in words) (IDO): enhanced signals | anticancer activity against CT26 tumors (in words) [1]: significant anticancer activity | platinum levels in blood plasma [2]: 1.9 mg/kg | Platinum ratio tumor:kidney [2]: 0.6 | Platinum ratio tumor:liver [2]: 0.6

Cn1cc(C[C@@H](NC(=O)[O][Pt]2([O]C(=O)CCCCCN3C(=O)C=CC3=O)[O]C(=O)C(=O)[O]2)C(=O)O)c2ccccc21.N[C@@H]1CCCC[C@H]1N [MalEs/IdoCa, (OC-6-34)-[(R)-(1-Carboxy-2-(1-methyl-1H-indol-3-yl)ethyl)carbamato][(1R,2R)-1,2-cyclohexanediamino][6-(2,5-dioxo-2,5-dihydro-1H-pyrrol-1-yl)hexanoato]oxalatoplatinum(IV)]
IDO activity in tumor, Trp to Kyn ratio (in words) (IDO; compared to solvent- or MalCa/IdoEs-treated animals): inhibition of IDO activity indicated by an improved Trp to Kyn ratio | 1-MDT levels in tumor, fold higher than upon MalCa/IdoEs treatment (IDO; SKOV3 tumor tissue): ~2 fold | anticancer activity against CT26 tumors (in words) [1]: activity comparable to MalCa/IdoCa | immune cell population in tumor-draining lymph nodes [3]: no effect | ratio of CD4+ to CD8+ T cells in the malignant tissue [3]: significant shift | plasma platinum concentration, fold higher than oxaliplatin or OAc/OAc [2]: ~12 fold | platinum levels in blood plasma [2]: 5.9 mg/kg | Platinum ratio tumor:kidney [2]: 1.2 | Platinum ratio tumor:liver [2]: 0.7

CC(=O)[O][Pt]12([O]C(=O)CCc3cn(C)c4ccccc34)([NH]C3CCCCC3[NH]1)[O]C(=O)C(=O)[O]2 [OAc/IPAEs, (OC-6-44)-Acetato[(1R,2R)-1,2-cyclohexanediamino][3-(1-methyl-1H-indol-3-yl)propanoato]oxalatoplatinum(IV)]
reduction kinetics with AA (in words) [4]: comparable reduction kinetics to the carbamate-linked complexes | reduction in the presence of dithiothreitol (in words) [5]: stable under these conditions

O=C1[O][Pt]2([NH][C@@H]3CCCC[C@H]3[NH]2)[O]C1=O [oxaliplatin, reference compound]
IC50 ([6]; 48 h incubation, with 5 equiv AA, read-out: CT26 IC50 values +AA, mean ± SD): 1.53 ± 0.25 µM | IC50 ([6]; 48 h incubation, without AA, read-out: CT26 IC50 values, mean ± SD): 1.5 ± 0.39 µM | IC50 ([6]; 72 h incubation, with 5 eq. AA, read-out: CT26 IC50 values + 5 eq. AA, mean): 2.11 µM | IC50 ([6]; 72 h incubation, without AA, read-out: CT26 IC50 values, mean): 1.9 µM | IC50 ([7]; 48 h incubation, with 5 equiv AA, read-out: HCT116 IC50 values +AA, mean ± SD): 0.67 ± 0.01 µM | IC50 ([7]; 48 h incubation, without AA, read-out: HCT116 IC50 values, mean ± SD): 0.72 ± 0.01 µM | IC50 ([7]; 72 h incubation, with 5 eq. AA, read-out: HCT116 IC50 values + 5 eq. AA, mean): 0.74 µM | IC50 ([7]; 72 h incubation, without AA, read-out: HCT116 IC50 values, mean): 0.76 µM | IC50 [8]: 2.1 µM | IC50 [9]: 8.35 µM | IC50 (human SKOV3 cancer cells): 43.4 µM | IC50 [10]: 3.94 µM | IC50 (SKOV3 cancer cells): 6.2 ± 1.1 µM | cellular platinum uptake (in words) (HCT116 cells): taken up by the cells much more efficiently than any of the platinum(IV) prodrugs
